The values below come from patent US8735620B2, “Processes for preparing (E)-styrylbenzylsulfone compounds and uses thereof for treating proliferative disorders” (priority 2008, dated 2014).

What all share (assay type): cell-based
Data set [1] deals with DLD1 (human colorectal tumor cell line). Kind of data set: Cytotoxicity assay (trypan blue exclusion, 96 h), DLD1. Particulars: DLD1, 96 h treatment; read-out: DLD1 IC50.
Text: (§1) Tissue Culture and Reagents: Paclitaxel was purchased from Sigma. Cell lines were purchased from ATCC. Cell lines were routinely grown in DMEM or RPM1 (CellGro) supplemented with 10% fetal bovine serum (Atlas) and 1 unit/mL penicillin-streptomycin (Gibco).
Data set [2] deals with BT20 (human breast tumor cell line). In words: Cytotoxicity assay (trypan blue exclusion, 96 h), BT20. As to conditions: BT20, 96 h treatment.
Text: as §1
Data set [3] concerns BT20, DU145, H157 and DLD1 cell lines. In words: In vitro cytotoxicity, four human tumor cell lines (SAR discussion). The procedure:
A number of tumor cell lines were tested using a dose response end point assay system. The cells were grown in either DMEM or RPMI supplemented with 10% fetal bovine serum and 1 unit/mL Penicillin-Streptomycin solution. The tumor cells were plated into 6 well dishes at a cell density of 1.0×10^5 cells/mL/well and compounds were added 24 h later at various concentrations. Cell counts were determined from duplicate wells after 96 h of treatment. The total number of viable cells was determined by trypan blue exclusion.
Following the synthesis of this group of compounds, their in vitro cytotoxicity was assessed using four different human tumor cell lines derived from human breast (BT20), prostate (DU145), lung (H157) and colorectal (DLD1) cancers. […] In a majority of the compounds described here, a methoxy group was kept constant at the 4th position on the aromatic ring of the benzyl moiety.

Data set [4] relates to DU145 (human prostate tumor cell line). In words: Cytotoxicity assay (trypan blue exclusion, 96 h), DU145. As to conditions: DU145, 96 h treatment; read-out: DU145 IC50.
Data set [5] deals with H157 (human lung tumor cell line). Kind of data set: Cytotoxicity assay (trypan blue exclusion, 96 h), H157. Particulars: H157, 96 h treatment; read-out: H157 IC50.
Text: as §1

Like-named read-outs stand apart in the source and are kept apart here.

`COc1ccc(CS(=O)(=O)/C=C/c2ccccc2OC)cc1` [6f, (E)-2-Methoxystyryl-4-Methoxybenzyl sulfone]: the IC50 in data set [1] was found to be 7500 nM; in data set [2], 5000 nM; in data set [4], 3500 nM; in data set [5] it was 5000 nM. The “cytotoxic activity, SAR statement” value in data set [3] (four human tumor cell lines) is on record as “partially recovered the lost activity”.

In the case of `COc1ccc(CS(=O)(=O)/C=C/c2c(OC)cccc2OC)cc1` [6m, (E)-2,6-Dimethoxystyryl-4-Methoxybenzyl sulfone], the IC50 was 700 nM in data set [1], 400 nM in data set [2], 250 nM in data set [4] and 700 nM in data set [5]. Moreover, the “fold enhancement of activity compared to other disubstituted methoxy sulfones (6j, 6n, 6o and 6p)” value in data set [3] (cytotoxicity assays) was “greater than 40 fold”.

As to `COc1ccc(CS(=O)(=O)/C=C/c2c(OC)cc(F)cc2OC)cc1` [6v, (E)-2,6-Dimethoxy-4-fluorostyryl-4-Methoxybenzyl sulfone], the IC50 in data set [1] stood at 750 nM; in data set [2] it was 750 nM; in data set [4], 500 nM; in data set [5] it was 500 nM. Besides, the “cytotoxic activity, SAR statement” value in data set [3] is reported as “either a reduced level or total loss of activity”.

In the case of `COc1ccc(CS(=O)(=O)/C=C/c2ccc(F)cc2)cc1` [6b, (E)-4-Fluorostyryl-4-Methoxybenzyl sulfone], the IC50 in data set [1] turned out to be 2000 nM; in data set [2], 1500 nM; in data set [4], 1250 nM; in data set [5] it was 2500 nM. Further, the “cytotoxic activity, SAR statement” value in data set [3] was “moderate cytotoxic activity”.

What is called IC50 is the concentration that inhibits the measured activity by half.
